Data set [1] concerns the target T1, Fatty-acid amide hydrolase 1 (Rattus norvegicus, UniProt P97612).
T1 sequence (P97612 whole entry): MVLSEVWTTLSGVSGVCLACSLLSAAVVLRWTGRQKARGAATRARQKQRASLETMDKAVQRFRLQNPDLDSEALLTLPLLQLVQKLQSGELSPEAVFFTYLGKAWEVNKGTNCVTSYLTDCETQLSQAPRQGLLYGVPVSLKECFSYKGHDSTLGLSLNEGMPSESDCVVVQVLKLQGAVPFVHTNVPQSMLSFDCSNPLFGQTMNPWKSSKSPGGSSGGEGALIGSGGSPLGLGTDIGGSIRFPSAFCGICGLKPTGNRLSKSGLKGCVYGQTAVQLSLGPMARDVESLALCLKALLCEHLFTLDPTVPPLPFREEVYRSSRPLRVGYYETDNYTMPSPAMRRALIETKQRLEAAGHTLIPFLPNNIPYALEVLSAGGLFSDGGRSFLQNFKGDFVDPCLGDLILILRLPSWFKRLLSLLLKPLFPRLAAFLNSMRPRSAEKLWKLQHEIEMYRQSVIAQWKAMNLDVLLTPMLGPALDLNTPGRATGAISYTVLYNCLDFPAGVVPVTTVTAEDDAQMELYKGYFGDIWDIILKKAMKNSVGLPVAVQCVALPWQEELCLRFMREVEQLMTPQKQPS
Put plainly: Inhibition of rat FAAH expressed in CHO cell lysates assessed as arachidonyl-7-amino-4-methylcoumarin amide hydrolysis to 7-amino 4-methyl coumarin preincubated for 15 mins prior to substrate addition measured after 1 to 3 hrs by fluorescence assay. Format: cell-free.

Data set [2] is described as follows: Inhibition of rhesus monkey FAAH expressed in CHO cell lysates assessed as arachidonyl-7-amino-4-methylcoumarin amide hydrolysis to 7-amino 4-methyl coumarin preincubated for 15 mins prior to substrate addition measured after 1 to 3 hrs by fluorescence assay. It is filed as cell-free, Macaca mulatta.
Data set [3] deals with T2, Fatty-acid amide hydrolase 1 (Homo sapiens, UniProt O00519).
T2 sequence (O00519 whole entry): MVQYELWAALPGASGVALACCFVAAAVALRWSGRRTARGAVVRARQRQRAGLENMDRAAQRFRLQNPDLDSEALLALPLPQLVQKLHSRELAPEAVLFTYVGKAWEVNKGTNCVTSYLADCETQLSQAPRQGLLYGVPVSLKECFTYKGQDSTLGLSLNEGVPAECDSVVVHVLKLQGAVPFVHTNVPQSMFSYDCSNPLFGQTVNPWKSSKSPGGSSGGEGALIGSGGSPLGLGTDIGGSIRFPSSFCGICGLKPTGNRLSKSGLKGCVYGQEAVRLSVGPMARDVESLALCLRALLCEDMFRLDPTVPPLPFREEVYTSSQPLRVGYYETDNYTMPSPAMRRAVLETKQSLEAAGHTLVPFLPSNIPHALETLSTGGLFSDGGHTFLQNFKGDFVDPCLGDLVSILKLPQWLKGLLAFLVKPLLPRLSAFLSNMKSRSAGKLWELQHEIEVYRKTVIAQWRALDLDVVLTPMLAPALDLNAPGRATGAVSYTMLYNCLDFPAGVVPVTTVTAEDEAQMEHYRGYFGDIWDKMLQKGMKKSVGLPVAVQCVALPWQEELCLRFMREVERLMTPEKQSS
Put plainly: Inhibition of human FAAH expressed in CHO cell lysates assessed as arachidonyl-7-amino-4-methylcoumarin amide hydrolysis to 7-amino 4-methyl coumarin preincubated for 15 mins prior to substrate addition measured after 1 to 3 hrs by fluorescence assay. Format: cell-free.

Data set [4] is described as follows: Lipophilicity, log D of the compound at pH 7.3 by HPLC analysis. It is filed as physicochemical. The settings on record: buffer.
The target of another data set is Cannabinoid receptor 2 (Homo sapiens, UniProt P34972). As to the kind of experiment: Inhibition of CB2 receptor (unknown origin).
The target of data set [5] is T3, Fatty-acid amide hydrolase 1 (Homo sapiens) (UniProt O00519).
T3 sequence (whole entry): T2 sequence (O00519 whole entry)
As to the kind of experiment: (§1) Binding affinity to FAAH in human cortical homogenates. As to conditions: tested as the 3H-labelled form; call rule not given here.

The target of data set [6] is Voltage-gated inwardly rectifying potassium channel KCNH2 (Homo sapiens, UniProt Q12809). Put plainly: Inhibition of human ERG.
The species entered for data set [7] is Macaca mulatta. Put plainly: Inhibition of FAAH in rhesus monkey whole blood. It is filed as tissue-based.
A short description of data set [8]: Inhibition of L-type calcium channel diltiazem binding site (unknown origin). Further details: species or system Homo sapiens.
A short description of data set [9]: Activity at rat P-glycoprotein. Format: ADME.
The test system of data set [10] is Brain. As to the kind of experiment: Drug uptake in rat brain at 2 mg/kg, po after 2 hrs. Format: ADME, organism-based. The arrangement: dose 2 mg/kg, route oral. As to conditions: in vivo.
Data set [11] is filed under the species Macaca mulatta. As to the kind of experiment: (§2) Binding affinity to FAAH in rhesus monkey cortical homogenates. Format: tissue-based. The settings on record: tested as the 3H-labelled form.
A short description of data set [12]: Activity at human P-glycoprotein. It is filed as ADME.
The nature of data set [13]: Chemical stability of the compound. It is filed as physicochemical.
For another data set, the target named is Phosphodiesterase 4 (Homo sapiens, UniProt P27815+Q08499+Q07343+Q08493). As to the kind of experiment: Inhibition of phosphodiesterase PDE4 (unknown origin). It is filed as protein assay.
Data set [14] is described as follows: Ratio of drug level in brain to plasma in rat at 2 mg/kg, po after 2 hrs. Further details: dose 2 mg/kg, route oral. As to conditions: read-out: BPR. Format: ADME, organism-based.
In data set [15] the target is T3, Fatty-acid amide hydrolase 1 (Homo sapiens). As to the kind of experiment: Inhibition of FAAH in human whole blood.
The target in a further data set is Cytochrome P450 3A4 (Homo sapiens, UniProt P08684). Put plainly: Inhibition of CYP3A4 (unknown origin). Format: ADME.
The target in another data set is Acetylcholinesterase (Homo sapiens, UniProt P22303). Put plainly: Inhibition of acetyl cholinesterase (unknown origin).
Data set [16] in a line: Solubility of the compound in saline buffer at pH 3 to 8 in presence of 10% ethanol. Format: physicochemical.
Another data set concerns the target Cannabinoid receptor 1 (Homo sapiens, UniProt P21554). As to the kind of experiment: Inhibition of CB1 receptor (unknown origin).
The next data set relates to Striatum. As to the kind of experiment: Drug uptake in rhesus monkey striatum at 5 mCi, iv after 45 mins by positron emission tomographic analysis. The settings on record: in vivo, 0.75 h. Format: ADME, organism-based, Macaca mulatta.
Data set [17] is described as follows: Drug uptake in rhesus monkey frontal cortex at 5 mCi, iv after 45 mins by positron emission tomographic analysis. It is filed as ADME, organism-based, Macaca mulatta. As to conditions: in vivo, 0.75 h.
For the next data set, the system named is Hippocampus. Put plainly: Drug uptake in rhesus monkey hippocampal regions at 5 mCi, iv after 45 mins by positron emission tomographic analysis. Format: ADME, organism-based, Macaca mulatta. The settings on record: in vivo, 0.75 h.
Data set [18] relates to Brain. Put plainly: Drug uptake in iv dosed rhesus monkey brain after 45 mins measured per mCi/kg by positron emission tomographic analysis. Format: ADME, organism-based, Macaca mulatta. As to conditions: in vivo, 0.75 h.
Data set [19] can be described thus: Apparent permeability of the compound. It is filed as ADME. The settings on record: not told.
In data set [20] the target is T2, Fatty-acid amide hydrolase 1. The data set is described as §1.
In data set [21] the target is T1, Fatty-acid amide hydrolase 1. As to the kind of experiment: Binding affinity to FAAH in rat cortical homogenates.
The nature of data set [22]: as §2. It is filed as tissue-based, Macaca mulatta.

Sequence of Cannabinoid receptor 2 (P34972 whole entry): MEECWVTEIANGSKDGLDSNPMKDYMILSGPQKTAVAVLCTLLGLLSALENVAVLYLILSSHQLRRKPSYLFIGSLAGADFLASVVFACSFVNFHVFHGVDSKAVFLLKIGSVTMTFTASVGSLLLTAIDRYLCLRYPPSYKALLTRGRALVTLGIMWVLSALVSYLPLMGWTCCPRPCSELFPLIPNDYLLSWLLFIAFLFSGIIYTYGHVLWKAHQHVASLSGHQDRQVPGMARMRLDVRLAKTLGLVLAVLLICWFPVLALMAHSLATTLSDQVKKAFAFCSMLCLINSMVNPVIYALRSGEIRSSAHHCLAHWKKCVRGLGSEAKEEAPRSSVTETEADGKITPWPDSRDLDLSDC
Sequence of Voltage-gated inwardly rectifying potassium channel KCNH2 (Q12809 whole entry): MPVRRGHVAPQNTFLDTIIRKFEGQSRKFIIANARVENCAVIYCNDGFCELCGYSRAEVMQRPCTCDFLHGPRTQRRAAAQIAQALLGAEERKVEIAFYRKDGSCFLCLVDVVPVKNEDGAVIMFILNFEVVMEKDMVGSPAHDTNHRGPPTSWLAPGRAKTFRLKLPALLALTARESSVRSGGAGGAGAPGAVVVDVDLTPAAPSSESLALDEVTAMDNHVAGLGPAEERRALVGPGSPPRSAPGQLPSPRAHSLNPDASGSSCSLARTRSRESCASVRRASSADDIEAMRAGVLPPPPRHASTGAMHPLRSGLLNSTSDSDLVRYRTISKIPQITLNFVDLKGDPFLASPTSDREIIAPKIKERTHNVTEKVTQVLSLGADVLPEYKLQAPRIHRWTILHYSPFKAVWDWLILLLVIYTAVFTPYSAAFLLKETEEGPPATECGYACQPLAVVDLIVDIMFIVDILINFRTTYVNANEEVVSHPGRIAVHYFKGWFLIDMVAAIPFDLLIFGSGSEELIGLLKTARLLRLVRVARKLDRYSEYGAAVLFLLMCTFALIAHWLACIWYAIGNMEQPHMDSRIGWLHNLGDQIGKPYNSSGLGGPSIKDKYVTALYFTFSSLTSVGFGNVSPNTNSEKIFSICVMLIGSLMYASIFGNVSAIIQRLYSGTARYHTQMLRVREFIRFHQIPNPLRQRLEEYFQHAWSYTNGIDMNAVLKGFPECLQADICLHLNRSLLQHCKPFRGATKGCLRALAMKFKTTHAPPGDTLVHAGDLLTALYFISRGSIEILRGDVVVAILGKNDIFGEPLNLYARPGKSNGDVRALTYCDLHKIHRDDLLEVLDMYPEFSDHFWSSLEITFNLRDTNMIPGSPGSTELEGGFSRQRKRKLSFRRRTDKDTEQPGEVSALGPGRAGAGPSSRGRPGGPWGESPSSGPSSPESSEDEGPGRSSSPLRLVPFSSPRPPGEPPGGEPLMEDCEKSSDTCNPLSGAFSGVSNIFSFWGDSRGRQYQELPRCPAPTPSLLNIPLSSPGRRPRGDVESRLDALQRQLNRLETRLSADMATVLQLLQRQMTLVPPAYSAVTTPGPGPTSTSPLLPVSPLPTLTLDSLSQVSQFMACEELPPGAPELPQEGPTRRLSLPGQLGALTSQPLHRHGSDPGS
Sequence of Cannabinoid receptor 1 (P21554 whole entry): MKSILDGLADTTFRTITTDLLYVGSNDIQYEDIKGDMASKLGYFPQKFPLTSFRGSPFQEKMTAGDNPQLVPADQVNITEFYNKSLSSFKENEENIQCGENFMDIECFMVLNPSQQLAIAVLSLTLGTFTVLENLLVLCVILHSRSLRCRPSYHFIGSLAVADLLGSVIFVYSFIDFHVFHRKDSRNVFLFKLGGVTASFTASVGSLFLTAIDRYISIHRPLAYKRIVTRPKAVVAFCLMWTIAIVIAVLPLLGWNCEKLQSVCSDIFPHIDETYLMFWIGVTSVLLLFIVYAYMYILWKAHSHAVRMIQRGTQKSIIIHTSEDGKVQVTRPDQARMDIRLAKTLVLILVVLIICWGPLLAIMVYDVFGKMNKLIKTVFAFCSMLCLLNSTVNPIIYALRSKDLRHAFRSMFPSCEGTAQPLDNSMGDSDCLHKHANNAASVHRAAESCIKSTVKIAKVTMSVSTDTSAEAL
Sequence of Acetylcholinesterase (P22303 whole entry): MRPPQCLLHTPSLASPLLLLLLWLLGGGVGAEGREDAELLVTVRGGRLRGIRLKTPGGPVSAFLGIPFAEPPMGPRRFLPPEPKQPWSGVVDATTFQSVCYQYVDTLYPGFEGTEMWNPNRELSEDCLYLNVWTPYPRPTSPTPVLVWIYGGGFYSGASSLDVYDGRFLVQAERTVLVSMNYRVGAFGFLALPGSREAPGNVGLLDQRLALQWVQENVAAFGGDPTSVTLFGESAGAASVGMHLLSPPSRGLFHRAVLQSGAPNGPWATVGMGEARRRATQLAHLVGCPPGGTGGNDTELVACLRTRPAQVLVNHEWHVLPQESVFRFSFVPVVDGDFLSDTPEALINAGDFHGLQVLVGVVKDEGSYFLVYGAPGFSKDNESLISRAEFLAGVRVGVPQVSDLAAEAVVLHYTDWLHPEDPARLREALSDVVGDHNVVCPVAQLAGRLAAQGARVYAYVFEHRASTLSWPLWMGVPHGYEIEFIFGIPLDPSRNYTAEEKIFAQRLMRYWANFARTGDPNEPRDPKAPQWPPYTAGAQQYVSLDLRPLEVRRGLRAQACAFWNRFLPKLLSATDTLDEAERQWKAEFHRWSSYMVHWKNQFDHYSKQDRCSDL
Sequence of Cytochrome P450 3A4 (P08684 whole entry): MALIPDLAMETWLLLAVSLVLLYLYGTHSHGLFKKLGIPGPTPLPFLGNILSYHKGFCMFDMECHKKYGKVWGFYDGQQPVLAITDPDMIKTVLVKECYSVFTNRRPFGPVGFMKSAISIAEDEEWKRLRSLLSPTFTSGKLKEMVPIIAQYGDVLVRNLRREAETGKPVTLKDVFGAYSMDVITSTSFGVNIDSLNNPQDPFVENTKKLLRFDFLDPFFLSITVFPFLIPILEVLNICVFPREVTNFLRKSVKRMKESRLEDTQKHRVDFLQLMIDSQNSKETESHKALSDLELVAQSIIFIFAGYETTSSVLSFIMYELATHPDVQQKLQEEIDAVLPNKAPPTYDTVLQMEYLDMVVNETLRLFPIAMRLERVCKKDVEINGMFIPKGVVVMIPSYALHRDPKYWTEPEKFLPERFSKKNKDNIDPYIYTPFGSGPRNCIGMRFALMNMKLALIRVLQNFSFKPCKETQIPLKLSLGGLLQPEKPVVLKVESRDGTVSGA

As to `Cn1cnc(-c2ccc([C@H]3C[C@@H]3C(=O)NCCF)cc2)c1Sc1ccc(Cl)cc1`, the IC50 in [1] worked out at 1.4 nM; in [2], 3.1 nM; in data set [3], 1 nM. For the same compound, in [4], the logD was found to be 4.

Turning to `Cc1nc(-c2ccc([C@H]3C[C@@H]3C(=O)N(C)C)cc2)c(Sc2ccc(Cl)cn2)n1C`, the figures for the IC50 in data set [1] and in [3] were 34 nM and 13.6 nM, respectively.

Turning to `CN(C)C(=O)[C@H]1C[C@@H]1c1ccc(-c2ncn(C)c2Sc2ccc(Cl)cn2)cc1` [MK-3168], the IC50 on Cannabinoid receptor 2 turned out to be 150000 nM; in data set [1], 1.7 nM; in [6] it was 37000 nM; in data set [2] it was 5.5 nM; in data set [8], 16000 nM; against Phosphodiesterase 4, 9750 nM. The IC50 against Cytochrome P450 3A4 is more than 50000 nM; on Acetylcholinesterase it was 1630 nM; at Cannabinoid receptor 1, 30000 nM. For the same compound, the Bmax in data set [5] was 15 nM; in the data set filed under Macaca mulatta [11] it was 21 nM. The IC90 worked out at 29 nM in the data set listed under Macaca mulatta [7] and 5.5 nM in [15]. Besides, the Activity entry in data set [9] and in data set [12] was “Not Active” in each case. Moreover, in the data set on Brain [10], the Drug uptake result is “Active”. Moreover, the logD in [4] stood at 3.3. The Stability in [13] worked out at 24 h. The Kp at 2 h in data set [14] came to 7. In addition, the solubility entry in data set [16] is on record as “soluble”.

In the case of `CN(C)C(=O)[C@H]1C[C@@H]1c1ccc(-c2ncn(CCF)c2Sc2ccc(Cl)cn2)cc1`, the IC50 in [1] was 4.8 nM.

With `CNC(=O)[C@H]1C[C@@H]1c1ccc(-c2ncn(C)c2Sc2ccc(Cl)cc2)cc1`, the IC50 in [1] is 1.4 nM; in data set [3] it was 0.5 nM. In data set [4], this compound came in with a logD of 3.8.

For `CN(C)C(=O)[C@H]1C[C@@H]1c1ccc(-c2nc[nH]c2Sc2ccc(Cl)cn2)cc1`, the IC50 in data set [1] is 145 nM.

As to `CN(C)C(=O)[C@H]1C[C@@H]1c1ccc(-c2c(Sc3ccc(Cl)cn3)ncn2C)cc1`, the IC50 in data set [1] was 1390 nM; in [3] it was 839 nM.

As for `Cn1cnc(-c2ccc([C@H]3C[C@@H]3C(=O)NCCF)cc2)c1Sc1ccc(Cl)cn1`, the IC50 in [1] was 4.2 nM; in [2], 7 nM. In data set [4], this compound displayed a logD of 3.

On to `[11CH3]n1cc(Sc2ccc(Cl)cc2)c(-c2ccc3ccc(C(N)=O)nc3c2)n1`, for which the IC50 in data set [1] amounted to 0.4 nM; in data set [2] it was 0.8 nM; in data set [3], 0.5 nM. The compound further showed a logD in data set [4] of 4.2.

Take `CN(CCF)C(=O)[C@H]1C[C@@H]1c1ccc(-c2ncn(C)c2Sc2ccc(Cl)cc2)cc1`: the IC50 worked out at 1.3 nM in data set [1], 8.8 nM in data set [2] and 1.1 nM in [3]. This compound also showed a pH-dependent lipophilicity (logD) in data set [4] of 4.3.

As for `CN(CCF)C(=O)[C@H]1C[C@@H]1c1ccc(-c2ncn(C)c2Sc2ccc(Cl)cn2)cc1`, the IC50 in data set [1] stood at 3 nM; in data set [2] it was 27 nM. The pH-dependent lipophilicity (logD) in [4] came to 3.4.

Turning to `Cn1cnc(-c2ccc([C@H]3C[C@@H]3C(N)=O)cc2)c1Sc1ccc(Cl)cc1`, the IC50 in data set [1] was found to be 1.7 nM; in data set [3], 0.8 nM. This compound also displayed a logD in data set [4] of 3.6.

In the case of `CN(C)C(=O)[C@H]1C[C@@H]1c1ccc(-c2ncn([11CH3])c2Sc2ccc(Cl)cn2)cc1` [MK-3168 C-11], the Drug uptake entry (with Striatum; in [17]; in the data set with Hippocampus) was “Active” each time. The SUV in the data set with Brain [18] is more than 1 nCi/cc. In addition, in data set [19], the Papp turned out to be 27 ×10⁻⁶ cm/s.

As to `CN(C)C(=O)[C@H]1C[C@@H]1c1ccc(-c2ncn(C)c2Sc2ccc(Cl)cc2)cc1`, the figures for the IC50 in data set [1] and in data set [2] were 0.6 nM and 1.4 nM, respectively. In data set [4], the logD was 4.2.

As to `[3H]C([3H])([3H])n1cnc(-c2ccc([C@H]3C[C@@H]3C(=O)N(C)C)cc2)c1Sc1ccc(Cl)cn1`, the values for the Kd in [20], in data set [21] and in data set [22] were 0.8 nM, 0.6 nM and 1.4 nM, respectively.

In the case of `Cn1cnc(-c2ccc([C@H]3C[C@@H]3C(N)=O)cc2)c1Sc1ccc(Cl)cn1`, the IC50 in data set [1] was 12 nM. This compound also had a log distribution coefficient (logD) in data set [4] of 2.

On to `CNC(=O)[C@H]1C[C@@H]1c1ccc(-c2ncn(C)c2Sc2ccc(Cl)cn2)cc1`, for which the IC50 in data set [1] was found to be 6 nM. In addition, the logD in data set [4] worked out at 2.9.

Consider `NC(=O)[C@H]1C[C@@H]1c1ccc(-c2nn(C3CC3)cc2Sc2ccc(Cl)cc2)cc1`, for which the IC50 in [1] is 4.2 nM; in data set [2], 33 nM; in data set [3] it was 5 nM. The compound also gave a logD in data set [4] of 3.8.

Turning to `CN(C)C(=O)[C@H]1C[C@@H]1c1ccc(-c2nc(C3CC3)n(C)c2Sc2ccc(Cl)cn2)cc1`, the results for the IC50 in data set [1] and in data set [3] were 106 nM and 48 nM, respectively.

The IC50 is the concentration that gives 50% inhibition. As usually defined, the logD is lipophilicity at a set pH, counting ionised and neutral species. By IC90 is commonly meant the concentration needed for an effect of 90%. What is called Papp is a coefficient for how fast a substance crosses the barrier. The Kd is a measure of binding affinity in units of concentration.

The record behind these values is ChEMBL document CHEMBL2385021, “Discovery of MK-3168: A PET Tracer for Imaging Brain Fatty Acid Amide Hydrolase” (ACS Med Chem Lett, 2013).
